Experiments:
euglobulin thrombin = target: T1, euglobulin thrombin (Homo sapiens, UniProt P00734); experiment: Decay constants of thrombin in plasma; assay type: biochemical; conditions: [S] 25 mM in plasma
T1 construct: The euglobulin thrombin fraction was prepared from defibrinated human plasma; from tissue; host or cells: defibrinated human plasma (euglobulin fraction, acid precipitation, method of Josso and Prou-Wartelle)
Description: (§1) To this mixture was added 10 μL of a thrombin preparation to achieve a final concentration of 100 nM. At regular time intervals (5-10 s) 10 μL samples were subsampled into 490 μL buffer B which contained 200 μM of S2238 to determine thrombin activity. After 2 min the reaction was stopped by adding 300 μL 1M citric acid. The moment of sampling and stopping were recorded on a personal computer with pushbutton-equipped pipettes. The optical density was then read at 405 nm and the obtained amidolytic activities were used to calculate the decay constants. The obtained decay constant is the sum of the decay constants of the reaction of thrombin with antithrombin III (k1) and α2 -macroglobulin (k2).
as §1, with “Decay constants of thrombin in plasma: To 120 μL defibrinated plasma was added: 50 μL of buffer A which contained the substances to be tested. To” for “To”, “was” for “was then”

[1] = system: thrombin generation in tissue factor triggered plasma; experiment: Manual determination of thrombin generation in plasma (subsampling method) and calculated prothrombinase activity; assay type: biochemical, human
Description: Manual determination of thrombin generation in plasma: Extrinsic pathway: To 480 μL defibrinated plasma were added: 172 μL buffer A which contains the substrate at concentrations between 0 to 2000 μM and 20 μL of a 54 μM phospholipid solution (final concentration: 1.5 μM). After incubation of 4 min at 37° C., 24 μL tissue factor (undiluted) was added. Thrombin formation started at zero time by adding 24 μL of a 0.5 M CaCl2 solution (final concentration: 16.67 mM). At regular time intervals of 12 s samples of 10 μL were subsampled as described above. From the amidolytic activities thus obtained, the thrombin generation curve can be drawn. […] Intrinsic pathway: To 480 μL defibrinated plasma were added: 168 μL buffer A which contains the substrate at concentrations between 0 to 1000 μM and 48 μL Actin FS (undiluted). This mixture was intensively mixed and incubated for 4 min at 37° C. Thrombin generation was started at zero time by adding 24 μL of a 0.5 M CaCl2 solution (final concentration: 16.67 mM).
Influence of the substrate on the prothrombinase-complex: With the obtained decay constants and from the curves obtained by the subsampling method we calculated the course of prothrombin conversion and the course of prothrombinase concentration.
Manual determination of thrombin generation in plasma: Extrinsic pathway: To 480 μL defibrinated plasma were added: 172 μL buffer A which contained the substrate at concentrations between 0 to 2000 μM and 20 μL of a 54 μM phospholipid solution (final concentration: 1.5 μM). After incubation for 4 min at 37° C., 24 μL tissue factor (undiluted) was added. Thrombin formation started at zero time by adding 24 μL of a 0.5 M CaCl2 solution (final concentration: 16.67 mM). At regular time intervals of 12 s samples of 10 μL were subsampled as described above. From the amidolytic activities thus obtained, the thrombin generation curve can be drawn.
Influence of the substrate on the prothrombinase-compzex: With the obtained decay constants and from the curves obtained by the subsampling method we calculated the course of prothrombin conversion and the course of prothrombinase concentration.

[2] = system: thrombin formation in plasma; experiment: Continuous registration of the thrombin generation curve (continuous assay of ETP); assay type: biochemical, human; conditions: 25 mM hydroxylamine
Description: Continuous registration of the thrombin generation curve: Extrinsic pathway: In a polystyrene microcuvette were added: 400 μL defibrinated plasma, 20 μL of a 45 μM phospholipid solution (final concentration: 1.5 μM), 140 μL of buffer A which contains the substrate at the desired final concentration (100-2000 μM). After 4 min of incubation at 37° C., 20 μL tissue factor (undiluted) was added. Thrombin generation was started by adding 20 μL of a 0.5 M CaCl2 solution (final concentration: 16.67 mM); during the measurement the temperature was kept at 37° C. The optical density was monitored at 405 nm. From the obtained optical density curve, the first derivative was calculated. […] The optical density was measured at 37° C. at 405 nm during 20 min.
Continuous registration of the thrombin generation curve: Extrinsic pathway: In a polystyrene microcuvette were added: 400 μL defibrinated plasma, 20 μL of a 45 μM phospholipid solution (final concentration: 1.5 μM) and 140 μL of buffer A which contains the substrate at the desired final concentration (500 μM). […] The optical density was monitored at 405 nm. From the obtained optical density curve, the first derivative was calculated giving the enzyme concentration during the measurement. […] The optical density was measured at 37° C. at 405 nm during 20 min. […] The optical density was measured at 37° C. at 405 nm during 25 min.

`NO` [hydroxylamine, reference compound] was tested. Which “(k1,corr) = k1,corr /1.856” value (euglobulin thrombin) did it give?
Its value is 0.585 min⁻¹.

What about the “k1,corr : k1 after correcting for k2,M and 0.170” value (euglobulin thrombin) of the same molecule?
Its value is 1.085 min⁻¹.

What about the “k1 : AT-III dependent decay of thrombin” value (euglobulin thrombin) of the same molecule?
Its value is 1.253 min⁻¹.

What about the “k2 : α2 M dependent decay of thrombin” value (euglobulin thrombin) of the same molecule?
Its value is 0.059 min⁻¹.

And the koverall (euglobulin thrombin)?
Its koverall is 1.312 min⁻¹.

And the t1/2 (euglobulin thrombin)?
Its t1/2 is 31.70 s.

What about the “k2,M : k2 determined by the subsampling method” value ([1]; [S] 25 mM in plasma) of the same molecule?
The value was 0.057 min⁻¹.

What about the “influence on the prothrombinase complex / coagulation cascade” value ([1]; calculated from decay constants and manual thrombin generation curves) of the same molecule?
Its value is “did not influence the coagulation cascade”.

And the “AA: amidolytic activity (maximum)” value ([1]; hydroxylamine 25 mM)?
Its value is 383.88 mOD/min.

What about the “PT: prothrombinase concentration (maximum)” value ([1]; hydroxylamine 25 mM) of the same molecule?
The value was 1227 mOD/min.

And the “T: thrombin concentration (maximum)” value ([1]; hydroxylamine 25 mM)?
Its value is 378.03 mOD/min.

What about the “t: time point at which maximum of amidolytic activity is achieved” value ([1]; hydroxylamine 25 mM) of the same molecule?
The value was 72 s.

What about the “t: time point at which maximum of prothrombinase concentration is achieved” value ([1]; hydroxylamine 25 mM) of the same molecule?
Its value is 36 s.

And the “t: time point at which maximum of thrombin concentration is achieved” value ([1]; hydroxylamine 25 mM)?
The value was 72 s.

What about the “residual amidolytic activity of the α2 M-thrombin complex” value [2] of the same molecule?
Its value is “substantially reduced”.

Reference: patent US6207399A, “Methods of determining endogenous thrombin potential (ETP) and thrombin substrates for use in said methods” (Hemker; Hendrik Coenraad, priority 1995, dated 2001)
